We go through seven molecules from ChEMBL document CHEMBL3044530, “A simple synthesis of trans-3,4,5-trimethoxycinnamamides and evaluation of their biologic activity” (2013).

Common to all, as to type: functional
In one experiment the test system is Mus musculus. Briefly: Antinarcotic activity in morphine-dependent C57BL/6 Mus musculus (mouse) assessed as decrease in naloxane-induced jumping frquency at 20 mg/kg, ip administered QD at 30 min prior to morphine-injection for 7 days followed by naloxane-challenge at 6 hr after last morphine-injection relative to control. The arrangement: scale not given: the % may be the effect or the level left.

In experiment [1] the test system is Radical scavenging activity. Kind of experiment: Antioxidant activity assessed as DPPH radical scavenging activity at 1 mM after 25 min by spectrophotometric analysis. In general terms: DPPH is a stable violet radical that fades when it is reduced.
Another experiment relates to Cortical neurone. Kind of experiment: Neuroprotective activity in ICR Mus musculus (mouse) cortical neurons assessed as protection against glutamate-induced toxicity at 5 to 20 uM after 24 hr by LDH assay.

Active and inactive are the calls of the source. The rule behind the calls is not given here.

With `COc1cc(/C=C/C(=O)N2CCOCC2)cc(OC)c1OC`, the values for the Activity (in the experiment with Mus musculus (route intraperitoneal); in experiment [1]) were 80% and above 20%, respectively.
Turning to `COc1cc(/C=C/C(=O)NCCO)cc(OC)c1OC`, the values for the Activity (in the experiment with Mus musculus (route intraperitoneal); in experiment [1]) were 80% and above 20%, respectively. In the experiment on Cortical neurone, the result was Active.
With `COc1cc(/C=C/C(=O)N2CCN(C(=O)c3ccccc3)CC2)cc(OC)c1OC`, the Activity was 80% with Mus musculus (route intraperitoneal) and above 20% in experiment [1]. For the same molecule, the result in the experiment on Cortical neurone was Active.
Take `COc1cc(/C=C/C(=O)N2CCSCC2)cc(OC)c1OC`: the Activity is 80% in the experiment with Mus musculus (route intraperitoneal) and above 20% in experiment [1]. In addition, in the experiment with Cortical neurone, the outcome was Active.
For `COc1cc(/C=C/C(=O)N2CCN(C(=O)/C=C/c3cc(OC)c(OC)c(OC)c3)CC2)cc(OC)c1OC`, the Activity with Mus musculus (route intraperitoneal) is given as 80%.
In the case of `COc1cc(/C=C/C(=O)O)cc(OC)c1OC`, the outcome with Mus musculus was Active.
For `COc1cc(/C=C/C(=O)NCCCN2CCCC2=O)cc(OC)c1OC`, the Activity is 80% in the experiment on Mus musculus (route intraperitoneal) and above 20% in experiment [1].
